One compound from patent publication US8741967B2, “Use of unsaturated sphingosine compounds as chemotherapeutic agents for the treatment of cancer” (Children's Hospital & Research Center at Oakland, priority 2007, dated 2014) can be followed below.

Structures are written as SMILES.

The subject of data set [1] is 4EBP. The data set can be described thus: Phosphorylated 4EBP in polyps of ApcMin/+ mice by western blotting. It is filed as in vivo. To be noted: gavage 2.5 mg/day, day 10. The protocol:
Murine experiments were performed to investigate the in vivo effect of C14Δ4:6Sd on the development of polyps in intestinal tissue using an established animal model system having an inherited genetic defect underlying spontaneous multiple intestinal neoplasia (Min) (Polakis, 1997 Biochim Biophys. Acta. 1332:F127; Kucherlapati et al., 2001 Semin. Canc. Biol. 11:219; Sansom et al., 2004 Genes Dev. 18:1385). Ten 12 week-old male ApcMin/+ mice (available from Jackson Laboratory, Bar Harbor, Me.) were administered by gavage 2.5 mg/day C14Δ4:6Sd and ten mice received vehicle control. Mice were euthanized by CO2 asphyxiation and intestinal tissues harvested at day 10. Gross polyps were counted and measured (diameter). […] Polyps were further analyzed for phosphorylated 4EBP by western blotting and it was confirmed that sphingadienes inhibited 4EBP phosphorylation in vivo.
A general note: Immunoblotting shows a protein as a band on a membrane.

The subject of data set [2] is SW480 cells. Kind of data set: Autophagy: GFP-LC3 fluorescence microscopy in SW480 cells. To be noted: SW480 transfected with GFP-LC3, 5 μM, 4 h. It is filed as cell-based, human. The protocol:
(§1) Autophagy is a cell process used to degrade components of the cytoplasm and functions as a cell survival mechanism during nutrient deprivation (P. Codogno and A J Meijer, Cell Death Differ. 2005 November; 12 Suppl 2:1509-18). […] In order to further investigate this phenomenon, LC3 (microtubule associated protein 1 light chain 3) was used as a marker for this process.
(§2) In one experiment, SW480 cells were transfected with a GFP-LC3 construct and treated for 4 h with 5 μM C14Δ4:6Sd. […] In another experiment, SW480 cells transfected with myr-Akt were treated with various concentrations of C14Δ4:6Sd and the amount of LC3 activation (shift from LC3-1 to LC3-2) was verified by western blotting.

The subject of data set [3] is 4EBP. The data set can be described thus: 4EBP phosphorylation by western blotting in SW480 cells. The format is cell-based, human. To be noted: SW480, 10 μM, up to 5 hours.
Data set [4] relates to HT29 cells. The data set can be described thus: Caspase-3 activity assay (apoptosis) in HT29 colon cancer cells. The format is cell-based, human. The protocol: To assess the effect of C14 sphingadienes on colon cancer cell viability, HT29, DLD1 and SW480 colon cancer cells (available from American Type Culture Collection (ATCC), Manassas, Va.) were propagated in DME-H21 plus 10% serum until ⅔ confluent. Media was then replaced with serum-free media containing 10 μM sphingadienes (SD). After 24 hours, cells were harvested, and whole cell extracts were prepared for caspase-3 activity assays. Caspase-3 activity was determined using substrate Ac-DEVD-pNA (Biomol, Plymouth Meeting, Pa.) as described (Oskouian, B., et al., Proc Natl Acad Sci USA 103: 17384-17389, 2006).
In an additional experiment, HT29 cells were treated with 10 μM sphingoid bases or ceramides and caspase-3 activity was determined at 24 hours.
HT29 cells transfected with constitutively active myristoylated Akt (myr-Akt) were treated with 10 μM C14Δ4:6Sd and caspase 3 activity was determined at 24 hours.
HT29 cells were incubated for 6 hours with 10 μM C14Δ4:6Sd and the translational activity of the cell cytosol was measured with the DUAL-LUCIFERASE® Reporter Assay System (Promega, Madison, Wis.). […] In another experiment, HT29 cells were pretreated with inhibitors of p38 (SB20350), MEK (PD98059), PI3K (LY294002) and JNK (JNK inhibitor 2) and caspase 3 activity was determined following an 18 hour incubation with 10 μM C14Δ4:6Sd.

Data set [5] has as its system SW480 cells. The data set can be described thus: Viability of SW480 colon cancer cells. It is filed as cell-based. To be noted: Homo sapiens; SW480, 10 μM, 24 hours; read-out: viability, % of controls. The protocol: (§3) The human colon cancer cell lines, HT29, SW480, HCT116 and DLD1 were treated with 10 μM C14Δ4:6Sd (also referred to herein as 2-aminotetradeca-4,6-diene-1,3-diol) and viability was determined at 24 hours.

Data set [6] concerns HCT116 cells. The data set can be described thus: Viability of HCT116 colon cancer cells. The format is cell-based. To be noted: Homo sapiens, HCT-116; HCT116, 10 μM, 24 hours; read-out: viability, % of controls. The protocol:
as §3

For data set [7], the system named is LC3. The data set can be described thus: LC3 activation (LC3-1 to LC3-2 shift) by western blotting in SW480 cells transfected with myr-Akt. The format is cell-based, human. To be noted: various concentrations. The protocol: as §1, §2
Data set [8] has as its target T1, murine Sphingosine Kinase 1 (SK1) (Mus musculus, UniProt Q8CI15).
T1 construct: expressed in transfected cells; host or cells: HEK293
The data set can be described thus: Phosphorylation by SK1 in extracts of HEK293 cells overexpressing SK1 (HPLC). The format is biochemical. To be noted: cell extracts preincubated for 10 minutes. The protocol: The formed phosphorylated sphingoid base products were measured by HPLC.
In order to test if preincubation with C14-So or C14Δ4:6Sd has an inhibitory effect on the ability of the SK enzyme to phosphorylate the C17-So compound, cell extracts were preincubated for 10 minutes with either C14-So or C14Δ4:6Sd followed by C17-So.

In data set [9] the test system is HT29 cells. The data set can be described thus: Viability of HT29 colon cancer cells. The format is cell-based, human. The protocol: as §3
HT29 cells were then incubated with various sphingadiene compounds and viability was determined at 24 hours.
HT29 cells were incubated with various concentrations of C14Δ4:6Sd and viability was determined at 24 hours or incubated with 10 μM C14Δ4:6Sd and viability was determined at various time points.
In a further experiment, HT29 cells were treated with the PI3K inhibitor wortmannin and various concentrations of C14Δ4:6Sd and viability was determined at 24 hours by MTT assay. The results confirmed synergistic inhibition of […] by C14Δ4:6Sd and wortmannin (see FIG. 8C).

Data set [10] relates to DLD1 cells. The data set can be described thus: Viability of DLD1 colon cancer cells. The format is cell-based. To be noted: Homo sapiens, DLD-1; DLD1, 10 μM, 24 hours; read-out: viability, % of controls. The protocol:
as §3

Where [11] appears, read: HT29 pretreated with inhibitor, 18 hour incubation with 10 μM.

T1 sequence (Q8CI15 whole entry): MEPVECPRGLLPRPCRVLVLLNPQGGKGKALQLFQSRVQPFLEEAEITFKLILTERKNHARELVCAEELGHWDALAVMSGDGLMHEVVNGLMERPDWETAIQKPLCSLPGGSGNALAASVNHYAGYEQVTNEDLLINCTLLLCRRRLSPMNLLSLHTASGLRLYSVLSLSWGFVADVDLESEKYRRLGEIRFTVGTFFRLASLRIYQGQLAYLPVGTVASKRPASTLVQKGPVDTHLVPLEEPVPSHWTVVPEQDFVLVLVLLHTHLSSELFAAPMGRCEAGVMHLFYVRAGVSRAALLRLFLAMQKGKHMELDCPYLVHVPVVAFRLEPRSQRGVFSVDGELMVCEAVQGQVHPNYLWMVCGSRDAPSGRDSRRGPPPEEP

The term viability denotes the share of living cells, or the viability signal relative to a control. With `CCCCCCC/C=C/C=C/C(O)C(N)CO` (centres unmarked) [C14Δ4:6Sd, 2-aminotetradeca-4,6-diene-1,3-diol], the “4EBP phosphorylation in polyps in vivo” value in [1] is on record as “inhibited”. Besides, in data set [2], the “autophagosome formation (GFP-LC3)” value is on record as “autophagosome formation”. For the same compound, in data set [3], the “phosphorylation of 4EBP” value is recorded as “reduced phosphorylation”. Moreover, in [4] (setting [11]), the “caspase 3 activity in combination with JNK inhibitor (JNK inhibitor 2)” value is “not synergistic”, the “caspase 3 activity in combination with MEK inhibitor (PD98059)” value was “not synergistic”, the “caspase 3 activity in combination with PI3K inhibitor LY294002” value is on record as “synergistic” and the “caspase 3 activity in combination with p38 inhibitor (SB20350)” value is listed as “not synergistic”. Also, the “caspase 3 activity / cell death in HT29 cells transfected with myr-Akt” value in data set [4] (constitutively active myristoylated Akt, 10 μM, 24 hours) is reported as “protected against sphingadiene-induced cell death”. Also, the viability at 10 µM in [5] is less than 50%. Further, the viability at 10 µM in [6] is more than 50%. Further, the “LC3 activation (shift from LC3-1 to LC3-2)” value in data set [7] is given as “autophagic activity”. The “inhibitory effect on phosphorylation of C17-So by SK” value in data set [8] is recorded as “no inhibitory effect was observed”. In addition, in [9] (HT29, various concentrations at 24 hours or 10 μM at various time points), the “dose and time dependence of cytotoxicity” value was “dose- and time-dependent”. In addition, the “cytotoxicity (viability)” value in data set [9] (HT29, various concentrations, 24 hours) is reported as “cytotoxic”. The “viability in combination with PI3K inhibitor wortmannin” value in data set [9] (HT29, various concentrations, 24 hours, MTT assay) is on record as “synergistic”. In addition, the viability at 10 µM in data set [9] (Homo sapiens, HT-29, HT29, 10 μM, 24 hours, read-out: viability, % of controls) was less than 50%. In data set [10], the viability at 10 µM is less than 50%.
